From PubChem BioAssay AID248 (DTP/NCI, 2004)
Values joined by “and” are separate entries in the source; they are usually repeats but may differ in a detail not shown here. Equal entries are not always repeated. Inconclusive results and toxic doses are left out. Cut-off read from the data, not from the text of the source: active = T/C of 150% or more; inactive = T/C below 125%.

System: L1210 leukemia ip in BDF1 mice, survival T/C
Assay: NCI In Vivo Anticancer Drug Screen. Data for tumor model L1210 Leukemia (intraperitoneal) in B6D2F1 (BDF1) mice
Settings: endpoint: mean survival time, higher = longer survival
Procedure, shortened: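 Transplanted-tumor mice were given test agent; controls received vehicle only. Survival readings from the two groups were divided (treated over control).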

[1] = dose: 50.0 mg/kg/injection, schedule: Q01DX009 (ip), vehicle: saline with Tween-80
[2] = dose: 100.0 mg/kg/injection, schedule: Q01DX009 (ip), vehicle: saline with Tween-80
[3] = dose: 100.0 mg/kg/injection, schedule: Q04DX003 (ip), vehicle: saline with Tween-80
[4] = dose: 200.0 mg/kg/injection, schedule: Q04DX003 (ip), vehicle: saline with Tween-80
[5] = dose: 400.0 mg/kg/injection, schedule: Q04DX003 (ip), vehicle: saline with Tween-80
[6] = dose: 100.0 mg/kg/injection, schedule: Q01DX001 (ip), vehicle: saline
[7] = dose: 200.0 mg/kg/injection, schedule: Q01DX001 (ip), vehicle: saline
[8] = dose: 400.0 mg/kg/injection, schedule: Q01DX001 (ip), vehicle: saline
[9] = dose: 100.0 mg/kg/injection, schedule: Q01DX009 (ip), vehicle: Klucel (hydroxypropylcellulose) (HPC)
[10] = dose: 200.0 mg/kg/injection, schedule: Q01DX009 (ip), vehicle: Klucel (hydroxypropylcellulose) (HPC)
[11] = dose: 100.0 mg/kg/injection, schedule: Q04DX002 (ip), vehicle: Klucel (hydroxypropylcellulose) (HPC)
[12] = dose: 200.0 mg/kg/injection, schedule: Q04DX002 (ip), vehicle: Klucel (hydroxypropylcellulose) (HPC)
[13] = dose: 400.0 mg/kg/injection, schedule: Q04DX002 (ip), vehicle: Klucel (hydroxypropylcellulose) (HPC)
[14] = dose: 100.0 mg/kg/injection, schedule: Q01DX001 (ip), vehicle: carboxymethylcellulose (CMC)
[15] = dose: 200.0 mg/kg/injection, schedule: Q01DX001 (ip), vehicle: carboxymethylcellulose (CMC)
[16] = dose: 50.0 mg/kg/injection, schedule: Q01DX001 (ip), vehicle: carboxymethylcellulose (CMC)

Measured: T/C

CC(C)(CO)CN1CCCCC1
inactive: [1] 93 % of control | [2] 93 % of control

O=C(O)c1cc2ccccc2cc1O.Oc1cccc2cccnc12.[Cu]
inactive: dose: 0.5 mg/kg/injection, schedule: Q01DX015 (ip), vehicle: carboxymethylcellulose (CMC) 91 % of control | dose: 1.0 mg/kg/injection, schedule: Q01DX015 (ip), vehicle: carboxymethylcellulose (CMC) 91 % of control | dose: 4.0 mg/kg/injection, schedule: Q01DX015 (ip), vehicle: carboxymethylcellulose (CMC) 93 % of control | dose: 8.0 mg/kg/injection, schedule: Q01DX015 (ip), vehicle: carboxymethylcellulose (CMC) 89 % of control and 90 % of control

CC1(C)OC2COC(c3cc(C(N)=O)n[nH]3)C2O1 (stereo not drawn)
inactive: [3] 97 % of control | [4] 100 % of control | [5] 100 % of control

Cc1ccc(S(=O)(=O)N=S(Cc2ccccc2)Cc2ccccc2)cc1
inactive: dose: 50.0 mg/kg/injection, schedule: Q01DX001 (ip), vehicle: saline sonified 103 % of control | dose: 100.0 mg/kg/injection, schedule: Q01DX001 (ip), vehicle: saline sonified 108 % of control | dose: 200.0 mg/kg/injection, schedule: Q01DX001 (ip), vehicle: saline sonified 95 % of control

CN(C)N=Nc1ccc(C(=O)N/N=C/c2ccccc2)cc1
inactive: dose: 75.0 mg/kg/injection, schedule: Q04DX003 (ip), vehicle: Klucel (hydroxypropylcellulose) (HPC) 99 % of control | dose: 150.0 mg/kg/injection, schedule: Q04DX003 (ip), vehicle: Klucel (hydroxypropylcellulose) (HPC) 97 % of control | dose: 300.0 mg/kg/injection, schedule: Q04DX003 (ip), vehicle: Klucel (hydroxypropylcellulose) (HPC) 100 % of control

CNc1nc(Cl)ncc1C
inactive: dose: 0.2 mg/kg/injection, schedule: Q01DX Z (ip), vehicle: methylcellulose (MC) 90 % of control | dose: 0.5 mg/kg/injection, schedule: Q01DX Z (ip), vehicle: methylcellulose (MC) 89 % of control

CCN(C(=O)c1cccc(C(=O)N(CC)c2ccccc2C)c1)c1ccccc1C
inactive: [1] 97 % of control | [2] 90 % of control | [3] 99 % of control | dose: 200.0 mg/kg/injection, schedule: Q01DX009 (ip), vehicle: saline with Tween-80 89 % of control | [4] 90 % of control

CCCCC(=O)N/N=C/c1ccc(Br)cc1
inactive: [6] 100 % of control | [7] 97 % of control | [8] 102 % of control

CCCNC(=O)Oc1ccccc1C(N)=O
inactive: [9] 105 % of control | [10] 102 % of control

Cc1ccc(OCCO)cc1C
inactive: [11] 120 % of control | [12] 92 % of control | [13] 92 % of control

CC(=O)Oc1cc(C)cc(OC(C)=O)n1
inactive: dose: 50.0 mg/kg/injection, schedule: Q01DX001 (ip), vehicle: saline 104 % of control | [6] 98 % of control | [7] 98 % of control | [8] 96 % of control

NC(N)=N/N=C/c1ccc(O)c(C(=O)O)c1
inactive: dose: 15.0 mg/kg/injection, schedule: Q01DX Z (ip), vehicle: methylcellulose (MC) 92 % of control | dose: 30.0 mg/kg/injection, schedule: Q01DX Z (ip), vehicle: methylcellulose (MC) 94 % of control | dose: 60.0 mg/kg/injection, schedule: Q01DX Z (ip), vehicle: methylcellulose (MC) 106 % of control | dose: 60.0 mg/kg/injection, schedule: Q01DX Z (oral), vehicle: methylcellulose (MC) 108 % of control | dose: 120.0 mg/kg/injection, schedule: Q01DX Z (ip), vehicle: methylcellulose (MC) 88 % of control | dose: 120.0 mg/kg/injection, schedule: Q01DX Z (oral), vehicle: methylcellulose (MC) 113 % of control | dose: 250.0 mg/kg/injection, schedule: Q01DX Z (oral), vehicle: methylcellulose (MC) 89 % of control

N#CCCN(C(=S)Nc1ccc(Cl)c(Cl)c1)C1CCCCC1
inactive: [9] 107 % of control | [10] 113 % of control | dose: 400.0 mg/kg/injection, schedule: Q01DX009 (ip), vehicle: Klucel (hydroxypropylcellulose) (HPC) 103 % of control

CCCCN(CCCC)CC(O)c1ccccc1 (stereo not drawn)
inactive: dose: 25.0 mg/kg/injection, schedule: Q01DX005 (ip), vehicle: saline 112 % of control | dose: 25.0 mg/kg/injection, schedule: Q01DX009 (ip), vehicle: saline 95 % of control | dose: 25.0 mg/kg/injection, schedule: Q04DX002 (ip), vehicle: saline with Tween-80 102 % of control | dose: 50.0 mg/kg/injection, schedule: Q01DX005 (ip), vehicle: saline 108 % of control | dose: 50.0 mg/kg/injection, schedule: Q01DX009 (ip), vehicle: saline 107 % of control | dose: 50.0 mg/kg/injection, schedule: Q04DX002 (ip), vehicle: saline with Tween-80 106 % of control | dose: 100.0 mg/kg/injection, schedule: Q01DX005 (ip), vehicle: saline 101 % of control | dose: 100.0 mg/kg/injection, schedule: Q04DX002 (ip), vehicle: saline with Tween-80 93 % of control

CC1([N+](=O)[O-])COP(=O)(Nc2ccc(F)cc2)OC1 (stereo not drawn)
inactive: [14] 100 % of control | [15] 94 % of control

COc1cccc(/C=N/NC(=O)c2ccncc2)c1OC
inactive: dose: 25.0 mg/kg/injection, schedule: Q01DX009 (ip), vehicle: Klucel (hydroxypropylcellulose) (HPC) 97 % of control | dose: 50.0 mg/kg/injection, schedule: Q01DX009 (ip), vehicle: Klucel (hydroxypropylcellulose) (HPC) 101 % of control | [9] 92 % of control and 105 % of control

CCCCCC(=O)OC1CCCCC1C1CCCCC1 (stereo not drawn)
inactive: [16] 96 % of control | [14] 94 % of control | [15] 100 % of control | dose: 400.0 mg/kg/injection, schedule: Q01DX001 (ip), vehicle: carboxymethylcellulose (CMC) 96 % of control

Oc1ccccc1C=NC1CCCCC1.Oc1ccccc1C=NC1CCCCC1.[Co+2]
inactive: dose: 100.0 mg/kg/injection, schedule: Q04DX003 (ip), vehicle: Klucel (hydroxypropylcellulose) (HPC) 100 % of control | dose: 200.0 mg/kg/injection, schedule: Q04DX003 (ip), vehicle: Klucel (hydroxypropylcellulose) (HPC) 100 % of control

N#CSC(C(=O)c1ccccc1)c1ccccc1 (stereo not drawn)
inactive: [3] 92 % of control | [4] 91 % of control | [5] 92 % of control

[Se]c1ncnc2nc[nH]c12
inactive: dose: 25.0 mg/kg/injection, schedule: Q01DX001 (ip), vehicle: carboxymethylcellulose (CMC) 103 % of control | [16] 93 % of control | [14] 121 % of control

CC1CC(C(C)CC(=O)O)C(=O)O1 (stereo not drawn)
inactive: [6] 102 % of control | dose: 100.0 mg/kg/injection, schedule: Q04DX003 (ip), vehicle: saline 111 % of control | [7] 95 % of control | dose: 200.0 mg/kg/injection, schedule: Q04DX003 (ip), vehicle: saline 108 % of control | [8] 97 % of control | dose: 400.0 mg/kg/injection, schedule: Q04DX003 (ip), vehicle: saline 101 % of control

C/C(=N\N=C(/C)c1c(C)c([N+](=O)[O-])c(C(C)(C)C)c([N+](=O)[O-])c1C)c1c(C)c([N+](=O)[O-])c(C(C)(C)C)c([N+](=O)[O-])c1C
inactive: [11] 97 % of control | [12] 94 % of control | [13] 97 % of control
